The test system of the experiment is MMP1 (collagénase interstitielle humaine). The experiment can be described thus: Amount of MMP-1 produced by PMA-stimulated fibroblasts (ELISA). It counts as cell-based, humains. Particulars: for inhibition at 0.04 %: ganoderic acids 0.04 %, versus témoin + PMA, read-out: diminution de la quantité MMP1; for activity at 0.04 %: read-out: % témoin +PMA; for MMP1 (ng/ml): 4 h pre-incubation, +PMA 0.1 µg/ml. An excerpt: Les essais figurant au tableau 2 ci-après concernent la régulation d'une enzyme, la MMP1 (collagénase interstitielle humaine) appartenant aux métalloprotéinases, de la famille des protéases, enzymes dégradant la matrice extra-cellulaire, la MMP1 dégradant particulièrement le collagène natif.
Les essais, dont les résultats figurent au tableau 2, ont donc consisté à comparer l'activité de la DHEA et des acides ganodériques B, C2 et G sur la régulation de l'activité de la MMP1 après stimulation des fibroblastes par PMA.
• Fibroblastes humains normaux profonds (type R2Ad2), utilisé au 2e passage. • Culture: 37° C, 5 % CO2 • Milieu de croissance : milieu Tebu PM-1 • Milieu d'essai : DMEM/HAMF10, vol/vol (Invitrogen 21969035 / Invitrogen 31550-023) • Hepes 15 mM (Invitrogen 1563-056) • L-glutamine 2 mM (Invitrogen 25030024) • pénicilline 50 UI/ml streptomycine 50 µg/ml (Invitrogen 15070063) • sans sérum de veau foetal
• solution stock : 10 % dans l'éthanol puis dilution à 0.1 % dans une solution de BSA délipidée à 5 mg/ml final • dilutions : en milieu de culture stérile • concentration finale testée: 0.001 % (50 µg/ml BSA 1^e conc, final) Acide Ganodérique B • solution stock : 10 % en DMSO • dilutions : en milieu de culture stérile • concentration finale testée: 0.04 % (50 µg/ml BSA final) Acide Ganodérique C2 • solution stock : 10 % en DMSO • dilutions : en milieu de culture stérile • concentration finale testée: 0.04 % (50 µg/ml BSA final) Acide Ganodérique G • solution stock : 10 % en DMSO • dilutions : en milieu de culture stérile • concentration finale testée: 0.04 % (50 µg/ml BSA final)
Les cellules ont été ensemensées à 17000 cellules par puits, en plaques 96 puits, une plaque pour chaque temps de culture. Toutes les conditions en triplicata (3 puits de culture). Les cellules ont été pré-cultivées pendant 24 h en milieu sans SVF. Après 24 h de pré-culture, les milieux ont été remplacés par un milieu équivalent contenant) les produits à l'essai ou non (contrôles) ou la DHEA à 0.001 %. Après 4 h d'incubation, une solution 10 fois concentrée de « phorbol myristate acétate » (PMA, Sigma, 0.1 µg/ml final) a été ajoutée ou non (contrôles) et les cellules ont été cultivées pendant 6 h supplémentaires.
A la fin de chaque temps de culture, les milieux de culture ont été récupérés et congelés à -80 °C pour dosage de la quantité de MMP-1 et la viabilité des tapis cellulaires a été contrôlée en utilisant un test standard de réduction du MTT.
Le dosage de MMP-1 (collagénase interstitielle humaine) a été réalisé par ELISA, à l'aide d'un kit « BIOTRACK human MMP-1, ELISA system, Amersham RPN2610 », selon les directives du fournisseur.
Résumé des conditions testées : • Modèle : fibroblastes humains • Test : dosage quantité de MMP-1 produite (protéine, ELISA) • Milieux : sans sérum • Tests : produits à l'essai, DHEA 0.001 % ou contrôles non traités, pendant 4 h • Stimulation : ajout de PMA (ou non, contrôles) et culture pendant 6 h. Produits (selon viabilités sur fibroblastes): • A.G. B 0:04 %; • A.G. C2 0.04 %; • A.G. G 0.04 %; • DHEA 10 µg/ml
Les données brutes de comptage ont été transférées et traitées sous le logiciel PRISM® (Graph Pad Software).
Les comparaisons inter-groupes ont été réalisées par analyse de variance (ANOVA) à l'aide du test de comparaison multiple de Dunnett.

The mark [1] stands for this setting: Fibroblast, ganoderic acid 0,04%, normal human fibroblasts, +PMA, 6h.
Setting [2] is: ganoderic acid 0,04%, normal human fibroblasts, 6h, Témoin + PMA 17,89.

This note sets out measurements from patent EP1434565B1, “USE OF GANODERIC ACIDS AS COSMETIC AGENTS” (YVES SAINT LAURENT PARFUMS, (Société Anonyme), priority 2001, dated 2003).

Bounds are passed on as bounds.

Take `CC(CC(=O)CC(C)C1CC(=O)C2(C)C3=C(C(=O)C(O)C12C)C1(C)CCC(O)C(C)(C)C1CC3O)C(=O)O` (stereo not shown) [A. ganodérique G, Acide Ganodérique G]: the inhibition at 0.04 % (Fibroblast, 6 h) is above 40%. The activity at 0.04 % under setting [1] was found to be 57%. Moreover, the “MMP1 (ng/ml)” value under setting [2] is given as 10,15 ng/ml. For the same compound, the “effets anti-vieillissement (régulation MMP1)” value (result in words, comparison between ganoderic acids B, C2 and G at 0.04 %) is reported as “activité supérieure aux deux autres acides ganodériques”.

With `CC(CC(=O)CC(C)C1CC(O)C2(C)C3=C(C(=O)CC12C)C1(C)CCC(O)C(C)(C)C1CC3O)C(=O)O` (stereo not shown) [A. ganodérique C2, Acide Ganodérique C2], the inhibition at 0.04 % (Fibroblast, 6 h) is around 30%. Moreover, the activity at 0.04 % under setting [1] turned out to be 72%. The “MMP1 (ng/ml)” value under setting [2] is 12,95 ng/ml.

Take `CC(CC(=O)CC(C)C1CC(=O)C2(C)C3=C(C(=O)CC12C)C1(C)CCC(O)C(C)(C)C1CC3O)C(=O)O` (stereo not shown) [A. ganodérique B, Acide Ganodérique B]: the inhibition at 0.04 % (Fibroblast, 6 h) is around 30%. Moreover, under setting [1], the activity at 0.04 % stood at 76%. The “MMP1 (ng/ml)” value under setting [2] is listed as 13,52 ng/ml.

With `C[C@]12CC[C@H](O)CC1=CC[C@@H]1[C@@H]2CC[C@]2(C)C(=O)CC[C@@H]12` [DHEA, DéHydroEpiAndrostérone, reference compound], the “MMP1 (ng/ml)” value (DHEA 0,001%, normal human fibroblasts, 6h, Témoin + PMA 10,54) is 6,38 ng/ml. Moreover, for the setting “DHEA 0,001%, normal human fibroblasts, +PMA, 6h, 360 min”, the “% témoin +PMA” value turned out to be 61%. Further, the activity at 0.001 % (Fibroblast, 6 h, read-out: % témoin +PMA, DHEA 0,001%, normal human fibroblasts, +PMA, 6h) was determined as 60%.
